Experimental data taken from the NIST ThermoML archive (doi:10.1021/je049973v).

Settings: Liquid; for speed of sound: Pulse-echo method; for mass density: Vibrating tube method

CCCCCCCCCCCCCCCCCc1ccccc1 [heptadecane, 1-phenyl-]
Settings | mass density [kg/m3] | speed of sound [m/s]
303.15 K, 100 kPa | 847.62 | 1422.6
303.15 K, 5000 kPa | 850.37 | –
303.15 K, 10000 kPa | 853.14 | 1467.5
303.15 K, 15000 kPa | 855.85 | –
303.15 K, 20000 kPa | 858.47 | 1510.9
303.15 K, 25000 kPa | 861 | –
303.15 K, 30000 kPa | 863.37 | 1552
303.15 K, 35000 kPa | 865.81 | –
303.15 K, 40000 kPa | 868.19 | 1590.5
303.15 K, 45000 kPa | 870.43 | –
303.15 K, 50000 kPa | 872.65 | 1627.2
303.15 K, 55000 kPa | 874.7 | –
303.15 K, 60000 kPa | 876.93 | 1661.9
303.15 K, 70000 kPa | – | 1695.6
313.15 K, 100 kPa | 840.87 | 1387.1
313.15 K, 5000 kPa | 843.75 | –
313.15 K, 10000 kPa | 846.65 | 1433.6
313.15 K, 15000 kPa | 849.47 | –
313.15 K, 20000 kPa | 852.17 | 1479.2
313.15 K, 25000 kPa | 854.73 | –
313.15 K, 30000 kPa | 857.38 | 1520.4
313.15 K, 35000 kPa | 859.9 | –
313.15 K, 40000 kPa | 862.24 | 1559.7
313.15 K, 45000 kPa | 864.56 | –
313.15 K, 50000 kPa | 866.8 | 1597.9
313.15 K, 55000 kPa | 869.08 | –
313.15 K, 60000 kPa | 870.6 | 1633.6
313.15 K, 70000 kPa | – | 1667.3
313.15 K, 80000 kPa | – | 1700
313.15 K, 90000 kPa | – | 1731.8
313.15 K, 100000 kPa | – | 1762
313.15 K, 110000 kPa | – | 1790.2
313.15 K, 120000 kPa | – | 1818.7
313.15 K, 130000 kPa | – | 1847.1
323.15 K, 100 kPa | 834.27 | 1352.6
323.15 K, 5000 kPa | 837.23 | –
323.15 K, 10000 kPa | 840.29 | 1402.3
323.15 K, 15000 kPa | 843.15 | –
323.15 K, 20000 kPa | 845.93 | 1447.9
323.15 K, 25000 kPa | 848.7 | –
323.15 K, 30000 kPa | 851.34 | 1490.8
323.15 K, 35000 kPa | 853.89 | –
323.15 K, 40000 kPa | 856.43 | 1531.1
323.15 K, 45000 kPa | 858.84 | –
323.15 K, 50000 kPa | 861.35 | 1569.2
323.15 K, 55000 kPa | 863.55 | –
323.15 K, 60000 kPa | 865.8 | 1605.8
323.15 K, 70000 kPa | – | 1640.7
323.15 K, 80000 kPa | – | 1673.9
323.15 K, 90000 kPa | – | 1705.8
323.15 K, 100000 kPa | – | 1736.6
323.15 K, 110000 kPa | – | 1766.3
323.15 K, 120000 kPa | – | 1794.9
323.15 K, 130000 kPa | – | 1822.8
323.15 K, 140000 kPa | – | 1849.3
323.15 K, 150000 kPa | – | 1875.5
333.15 K, 100 kPa | 827.59 | 1319.9
333.15 K, 5000 kPa | 830.84 | –
333.15 K, 10000 kPa | 833.94 | 1370.2
333.15 K, 15000 kPa | 837.13 | –
333.15 K, 20000 kPa | 839.97 | 1417.3
333.15 K, 25000 kPa | 842.84 | –
333.15 K, 30000 kPa | 845.52 | 1461.4
333.15 K, 35000 kPa | 848.14 | –
333.15 K, 40000 kPa | 850.62 | 1502.9
333.15 K, 45000 kPa | 853.3 | –
333.15 K, 50000 kPa | 855.69 | 1542.1
333.15 K, 55000 kPa | 858 | –
333.15 K, 60000 kPa | 860.35 | 1579.2
333.15 K, 70000 kPa | – | 1614.6
333.15 K, 80000 kPa | – | 1648.7
333.15 K, 90000 kPa | – | 1681.3
333.15 K, 100000 kPa | – | 1712.2
333.15 K, 110000 kPa | – | 1742.3
333.15 K, 120000 kPa | – | 1771.7
333.15 K, 130000 kPa | – | 1799.8
333.15 K, 140000 kPa | – | 1826.9
333.15 K, 150000 kPa | – | 1853.6
343.15 K, 100 kPa | 820.95 | 1287
343.15 K, 5000 kPa | 824.32 | –
343.15 K, 10000 kPa | 827.71 | 1338.7
343.15 K, 15000 kPa | 830.75 | –
343.15 K, 20000 kPa | 833.93 | 1387.3
343.15 K, 25000 kPa | 836.75 | –
343.15 K, 30000 kPa | 839.62 | 1432.3
343.15 K, 35000 kPa | 842.4 | –
343.15 K, 40000 kPa | 845.11 | 1475.5
343.15 K, 45000 kPa | 847.75 | –
343.15 K, 50000 kPa | 850.31 | 1515.3
343.15 K, 55000 kPa | 852.73 | –
343.15 K, 60000 kPa | 855.09 | 1553.3
343.15 K, 70000 kPa | – | 1589.5
343.15 K, 80000 kPa | – | 1624.1
343.15 K, 90000 kPa | – | 1657.2
343.15 K, 100000 kPa | – | 1688
343.15 K, 110000 kPa | – | 1719.2
343.15 K, 120000 kPa | – | 1748.7
343.15 K, 130000 kPa | – | 1777.4
343.15 K, 140000 kPa | – | 1805
343.15 K, 150000 kPa | – | 1832
353.15 K, 100 kPa | 814.43 | 1255.2
353.15 K, 5000 kPa | 817.93 | –
353.15 K, 10000 kPa | 821.35 | 1308.6
353.15 K, 15000 kPa | 824.69 | –
353.15 K, 20000 kPa | 827.9 | 1359.3
353.15 K, 25000 kPa | 830.86 | –
353.15 K, 30000 kPa | 833.85 | 1405.3
353.15 K, 35000 kPa | 836.9 | –
353.15 K, 40000 kPa | 839.55 | 1448.5
353.15 K, 45000 kPa | 842.1 | –
353.15 K, 50000 kPa | 844.78 | 1489.5
353.15 K, 55000 kPa | 847.34 | –
353.15 K, 60000 kPa | 849.77 | 1528.3
353.15 K, 70000 kPa | – | 1564.8
353.15 K, 80000 kPa | – | 1600.1
353.15 K, 90000 kPa | – | 1633.4
353.15 K, 100000 kPa | – | 1665.5
353.15 K, 110000 kPa | – | 1696.9
353.15 K, 120000 kPa | – | 1726.9
353.15 K, 130000 kPa | – | 1755.8
353.15 K, 140000 kPa | – | 1783.8
353.15 K, 150000 kPa | – | 1811.1
363.15 K, 100 kPa | 807.8 | 1223.6
363.15 K, 5000 kPa | 811.3 | –
363.15 K, 10000 kPa | 815.14 | 1278.7
363.15 K, 15000 kPa | 818.57 | –
363.15 K, 20000 kPa | 821.81 | 1330.3
363.15 K, 25000 kPa | 824.97 | –
363.15 K, 30000 kPa | 828 | 1378
363.15 K, 35000 kPa | 830.94 | –
363.15 K, 40000 kPa | 833.81 | 1422.2
363.15 K, 45000 kPa | 836.5 | –
363.15 K, 50000 kPa | 839.26 | 1464
363.15 K, 55000 kPa | 841.95 | –
363.15 K, 60000 kPa | 844.41 | 1503.3
363.15 K, 70000 kPa | – | 1541.1
363.15 K, 80000 kPa | – | 1576.4
363.15 K, 90000 kPa | – | 1610.7
363.15 K, 100000 kPa | – | 1643.4
363.15 K, 110000 kPa | – | 1674.6
363.15 K, 120000 kPa | – | 1705
363.15 K, 130000 kPa | – | 1734.4
363.15 K, 140000 kPa | – | 1763.3
363.15 K, 150000 kPa | – | 1790
373.15 K, 100 kPa | 801.11 | 1193
373.15 K, 5000 kPa | 805.07 | –
373.15 K, 10000 kPa | 808.86 | 1249.5
373.15 K, 15000 kPa | 812.48 | –
373.15 K, 20000 kPa | 815.93 | 1302.6
373.15 K, 25000 kPa | 819.17 | –
373.15 K, 30000 kPa | 822.4 | 1351.4
373.15 K, 35000 kPa | 825.42 | –
373.15 K, 40000 kPa | 828.43 | 1396.8
373.15 K, 45000 kPa | 831.28 | –
373.15 K, 50000 kPa | 834.03 | 1439.2
373.15 K, 55000 kPa | 836.72 | –
373.15 K, 60000 kPa | 839.37 | 1479.7
373.15 K, 70000 kPa | – | 1517.7
373.15 K, 80000 kPa | – | 1553.8
373.15 K, 90000 kPa | – | 1588.6
373.15 K, 100000 kPa | – | 1621.8
373.15 K, 110000 kPa | – | 1653.6
373.15 K, 120000 kPa | – | 1684.3
373.15 K, 130000 kPa | – | 1713.8
373.15 K, 140000 kPa | – | 1742.7
373.15 K, 150000 kPa | – | 1770.5
